We go through two molecules from publication PMC4829348 (Journal of medicinal chemistry, 2016).

The assay addresses WT A/M2 protein (Influenza A virus, UniProt P0DOF5). The assay is described as follows: biochemical. The following applies: read-out: % WT inhibition.

The inhibition is the drop in the measured response relative to a control, in per cent.

WT A/M2 protein, sequence (P0DOF5 whole entry): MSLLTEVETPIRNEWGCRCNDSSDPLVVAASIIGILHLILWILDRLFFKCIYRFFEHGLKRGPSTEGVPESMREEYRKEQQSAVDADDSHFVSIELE

As to `Oc1ccc(NC23CC4CC(CC(C4)C2)C3)c(O)c1` [compound 5], the inhibition at 100 µM worked out at 64%.
In the case of `c1ccc(-c2nc(CNC34CC5CC(CC(C5)C3)C4)cs2)cc1` [26i], the inhibition at 100 µM worked out at 0%.
